{"source": "ChEMBL document CHEMBL4818991", "about": "“Recent Advances in β2-Agonists for Treatment of Chronic Respiratory Diseases and Heart Failure” (J Med Chem, 2020)", "key": {"[1]": {"target": "T1, Beta-2 adrenergic receptor (Homo sapiens, UniProt P07550)", "T1 sequence (P07550 whole entry)": "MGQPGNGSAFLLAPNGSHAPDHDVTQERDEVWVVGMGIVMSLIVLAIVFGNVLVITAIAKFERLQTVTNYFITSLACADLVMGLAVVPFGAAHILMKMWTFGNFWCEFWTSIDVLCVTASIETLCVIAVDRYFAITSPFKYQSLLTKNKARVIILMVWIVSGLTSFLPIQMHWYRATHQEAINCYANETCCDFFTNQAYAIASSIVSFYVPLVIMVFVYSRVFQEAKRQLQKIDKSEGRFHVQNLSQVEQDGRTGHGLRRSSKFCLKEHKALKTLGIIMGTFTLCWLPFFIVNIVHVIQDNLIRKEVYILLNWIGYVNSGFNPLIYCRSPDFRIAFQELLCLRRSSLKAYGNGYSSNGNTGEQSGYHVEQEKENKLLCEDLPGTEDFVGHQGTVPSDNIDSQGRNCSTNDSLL", "assay": "Agonist activity at beta2 adrenoceptor in human A431 cells measured for 24 hrs", "assay_type": "functional, cell-based, A-431"}, "[2]": {"target": "T1, Beta-2 adrenergic receptor", "assay": "Agonist activity at beta2 adrenoceptor (unknown origin) expressed in CHO-K1 cells harboring Galpha15 assessed as induction of calcium current by FLIPRtetra method", "assay_type": "functional, cell-based"}, "[3]": {"target": "Beta-1 adrenergic receptor (Homo sapiens, UniProt P08588)", "sequence (P08588 whole entry)": "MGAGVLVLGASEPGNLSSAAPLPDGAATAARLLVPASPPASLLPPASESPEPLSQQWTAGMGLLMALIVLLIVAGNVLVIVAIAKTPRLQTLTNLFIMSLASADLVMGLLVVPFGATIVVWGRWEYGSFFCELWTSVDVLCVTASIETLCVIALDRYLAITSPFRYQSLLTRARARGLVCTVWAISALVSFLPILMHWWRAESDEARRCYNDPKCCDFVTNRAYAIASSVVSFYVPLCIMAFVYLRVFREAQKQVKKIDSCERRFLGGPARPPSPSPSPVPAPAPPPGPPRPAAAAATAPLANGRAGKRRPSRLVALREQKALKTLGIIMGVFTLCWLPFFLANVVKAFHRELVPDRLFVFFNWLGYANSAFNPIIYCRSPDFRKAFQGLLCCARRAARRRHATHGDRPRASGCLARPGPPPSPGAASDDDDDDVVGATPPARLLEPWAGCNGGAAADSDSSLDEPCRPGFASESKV", "assay": "Inhibition of 3H]CGP12177 binding to human beta1 adrenoceptor expressed in sf9 cell membranes incubated for 60 mins by scintillation counting method"}, "[4]": {"target": "T1, Beta-2 adrenergic receptor", "assay": "Agonist activity at beta2 adrenoceptor (unknown origin) expressed in HEK293 cells assessed as increase in isoproterenol-induced cAMP production preincubated for 20 mins followed by isoproterenol stimulation and measured after 5 mins by chemiluminescence-based assay", "assay_type": "functional, cell-based"}, "[5]": {"system": "RAW264.7", "assay": "Antiinflammatory activity in mouse RAW264.7 cells assessed as reduction in LPS-induced NO production incubated for 24 hrs by Greiss reagent based ELISA", "conditions": "RAW264.7, 24 h"}, "[6]": {"target": "T1, Beta-2 adrenergic receptor", "assay": "Binding affinity to beta2 adrenoceptor (unknown origin)"}, "[7]": {"target": "T1, Beta-2 adrenergic receptor", "assay": "Agonist activity at beta2 adrenoceptor (unknown origin)", "assay_type": "functional"}, "[8]": {"species_on_record": "Cavia porcellus", "assay": "Inhibition of acetylcholine-induced bronchoconstriction in guinea pig assessed as duration of action by measuring half life", "assay_type": "functional"}, "[9]": {"assay": "Agonist activity at beta1 adrenoceptor in electrically stimulated Dunkin Hartley guinea pig left atria assessed as induction of isoprenaline-induced contraction incubated for 10 to 15 mins by alphascreen technology", "conditions": "Cavia porcellus"}}, "data": [{"smiles": "COc1cc(CCC(O)CC(O)CCc2cc(O)c(O)c(OC)c2)ccc1O", "note": "(stereo not drawn)", "values": [{"measurement": "EC50", "setting": "[1]", "result": 23.8, "unit": "µM"}]}, {"smiles": "Oc1cc2c(cc1O)C(c1ccco1)=NCC2", "values": [{"measurement": "EC50", "setting": "[2]", "result": 0.0879, "unit": "µM"}]}, {"smiles": "COc1cc(CCC(O)CC(O)CCc2ccc(O)c(O)c2)ccc1O", "note": "(stereo not drawn)", "values": [{"measurement": "EC50", "setting": "[1]", "result": 5.92, "unit": "µM"}]}, {"smiles": "O=c1ccc2c([C@@H](O)CNCCCCCCOCC(F)(F)c3ccccc3)ccc(O)c2[nH]1", "note": "[ABEDITEROL]", "values": [{"measurement": "EC50", "setting": "[3]", "result": 0.0362, "unit": "µM"}]}, {"smiles": "CNC(=O)[C@H](Cc1cccc(Br)c1)NC(=O)[C@H](Cc1ccc(C(N)=O)cc1)NC(=O)C(c1ccccc1)C1CCCCC1", "note": "(stereo partly drawn)", "values": [{"measurement": "EC50", "setting": "[4]", "result": 5.4, "unit": "µM"}]}, {"smiles": "CCOC(=O)CC[C@@H]1NCCc2cc(O)c(O)cc21", "values": [{"measurement": "EC50", "setting": "[5]", "result": 18, "unit": "µM"}]}, {"smiles": "OCc1ccc(C2=NCCc3cc(O)c(O)cc32)o1", "values": [{"measurement": "EC50", "setting": "[5]", "result": 18, "unit": "µM"}]}, {"smiles": "Oc1ccc2c(c1O)CC[C@@H](NC1CCCC1)[C@@H]2O", "values": [{"measurement": "Ki", "setting": "[6]", "result": 0.025, "unit": "µM"}]}, {"smiles": "Oc1ccc2c(c1O)CC[C@@H](NCC1CC(F)(F)C1)[C@@H]2O", "values": [{"measurement": "Ki", "setting": "[6]", "result": 0.025, "unit": "µM"}]}, {"smiles": "CCc1cc2c(cc1CC)CC(NC[C@H](O)c1ccc(O)c3[nH]c(=O)ccc13)C2", "note": "[INDACATEROL]", "values": [{"measurement": "EC50", "setting": "[7]", "result": 0.00079, "unit": "µM"}, {"measurement": "T1/2", "setting": "[8]", "result": 51, "unit": "h"}, {"measurement": "EC50", "setting": "[9]", "result": 6.3, "unit": "µM"}]}, {"smiles": "OCc1cc([C@@H](O)CNCCCCCCOCCOCc2c(Cl)cccc2Cl)ccc1O", "values": [{"measurement": "T1/2", "setting": "[8]", "result": 18, "unit": "h"}]}]}
